Data published in US20140140951A1, “D-Alanine Ester of Rp-Nucleoside Analog” (priority 2012, published 2014).

What was measured:
HCV genotype 1b replicon = test: HCV replicon assay (luciferase reporter); format: cell-based; conditions: Hepatitis C virus; Zluc (Huh-7-derived) cells, 72 hours
Experimental: Huh-7-derived cell line (Zluc) that harbors an HCV genotype 1b replicon and a luciferase reporter gene was grown in Dulbecco's Modified Eagle Medium (DMEM) supplemented with 10% fetal bovine serum, 2 mM GlutaMAX, 1% MEM nonessential amino acids, 100 IU/mL penicillin, 100 μg/mL streptomycin, and 0.5 mg/mL Geneticin® (G418). For dose response testing the cells were seeded in 96-well plates at 7.5×10^3 cells per well in a volume of 50 μL, and incubated at 37° C./5% CO2. Drug solutions were made up freshly in Huh-7 media as 2× stocks. […] were prepared from these stocks in DMEM without G418. At least three hours after Zluc cells were seeded, drug treatment was initiated by adding 50 μL of drug dilutions to the plates in duplicate. Final concentrations of drug ranged from 100 μM to 0.0000512 μM. Cells were then incubated at 37° C./5% CO2. […] For this, media was removed from the plates via gentle tapping. Fifty microliters of ONE-glo luciferase assay reagent was added to each well. The plates were shaken gently for 3 min at room temperature and luminescence was measured on a Victor^3 V 1420 multilabel counter (Perkin Elmer) with a 1 second read time using a 700 nm cut-off filter. The EC50 values were calculated from dose response curves from the resulting best-fit equations determined by Microsoft Excel and XLfit 5.2 software. […]

[1] = Cytotoxicity evaluation (CellTiter-Blue cell viability); format: cell-based; conditions: human, Zluc cells (HCV replicon cells)
Experimental: For cytotoxicity evaluation, Zluc cells were treated with compound as described herein, and cell viability was monitored using the CellTiter-Blue Cell Viability Assay (Promega) by adding 20 μL of the assay solution to each well. The plates were then incubated at 37° C./5% CO2 for at least 3 hours. Fluorescence was detected in plates using excitation and emission wavelengths of 531 and 595 nm, respectively, in a Victor^3 V 1420 multilabel counter (Perkin Elmer) and CC50 values were determined using Microsoft Excel and XLfit 5.2 software.

[2] = Stability in liver microsomes; format: in vitro ADME, human; conditions: 10 μM, 1.0 mg/mL protein, NADPH, 60 min
Experimental: (§1) Stability of test compounds was determined in subcellular fractions (microsomes and S9) of human liver and intestine in duplicate for each matrix. Pooled liver and intestinal microsomal, intestinal and liver S9 proteins (1.0 mg/mL), suspended in incubation buffer (100 mM potassium phosphate, pH 7.4, 5 mM MgCl2, and 0.1 mM EDTA), were preincubated for 5 min at 37° C. with 10 μM of a test compound from a 10 mM stock solution in DMSO (final DMSO concentration was 0.1%); the reaction was initiated by the addition of NADPH (3 mM final concentration). At specific times (0 and 60 min), 0.1 mL samples were taken and the reaction terminated by the addition of 4 volumes of stop solution (acetonitrile with 500 ng/mL carbutamide as an internal standard). The samples were vortexed for 30 sec and then centrifuged at 16,000 g for 10 min. Aliquots of supernatants (100 μL each) were transferred to 96 deep-well plates preloaded with 100 μL distilled water and analyzed after mixing by LC-MS/MS. The MS peak area ratio of the test compound versus the internal standard was calculated and percent unchanged test compound over 60 minutes was calculated using this ratio.

[3] = Stability in intestinal microsomes; format: in vitro ADME, human; conditions: 10 μM, 1.0 mg/mL protein, NADPH, 60 min
Experimental: as §1

[4] = Liver pharmacokinetics (triphosphate) following a single oral dose in CD-1 mice; format: in vivo; conditions: single oral dose 10 mg/kg for I or 25 mg/kg for II in PEG 200, CD-1 male mice
Experimental: Liver samples were analyzed for the active species 2′-methyl-2′-fluorouridine triphosphate (2′-Me-2′-F—U TP) by LC-MS/MS. […] Internal standard solution was added to the homogenate followed by neutralization with 20% ammonium hydroxide solution and addition of 500 μL 1% formic acid. The tissue samples were extracted by weak anion exchange solid phase extraction (SPE). Post extraction, the eluates were evaporated under nitrogen, followed by reconstitution before injection onto the LC-MS/MS system. […] The calibration range was 10 to 10000 pmol/mL in mouse liver homogenate (50 to 50000 pmol/g of mouse liver).

CC(C)OC(=O)[C@@H](C)N[P@](=O)(OC[C@H]1O[C@@H](n2ccc(=O)[nH]c2=O)[C@](C)(F)[C@@H]1O)Oc1ccccc1 [Compound (Ib)]
EC50 (HCV genotype 1b replicon): > 10 µM | CC50 at 72 h [1]: > 50 µM | Stability (percent remaining) HLM (1 hr) [2]: +++++ (80% < +++++) | Stability (percent remaining) HIM (1 hr) [3]: +++++ (80% < +++++) | Ms Liver 2′-Me-2′-F-U TP AUC (pmol · hr/g at 1 μmol/kg) [4]: +++ (400 < +++ ≦ 1000)

CC(C)OC(=O)[C@@H](C)N[P@@](=O)(OC[C@H]1O[C@@H](n2ccc(=O)[nH]c2=O)[C@](C)(F)[C@@H]1O)Oc1ccccc1 [Compound (Ia), D-Alanine, N—((RP,2′R)-2′-deoxy-2′-fluoro-2′-methyl-P-phenyl-5′-uridylyl)-, 1-methylethyl ester]
EC50 (HCV genotype 1b replicon): > 10 µM | CC50 at 72 h [1]: > 50 µM | Stability (percent remaining) HLM (1 hr) [2]: ++++ (60% < ++++ ≦ 80%) | Stability (percent remaining) HIM (1 hr) [3]: +++++ (80% < +++++) | Ms Liver 2′-Me-2′-F-U TP AUC (pmol · hr/g at 1 μmol/kg) [4]: +++++ (1600 < +++++)
